Results from BigSolDB 2.1.

CCOC(=O)[C@@H](C)Oc1ccc(Oc2nc3ccc(Cl)cc3o2)cc1
solubility (mole fraction)
Settings	278.15 K	283.15 K	288.15 K	293.15 K	298.15 K	303.15 K	308.15 K	313.15 K	318.15 K	323.15 K
in ethanol	0.000972	0.00121	0.0015	0.00186	0.00224	0.00266	0.00314	0.00376	0.00446	0.00534
in water	1.93e-06	2.91e-06	4.12e-06	5.68e-06	7.36e-06	9.61e-06	1.24e-05	1.59e-05	2.03e-05	2.57e-05
